# Test results as given in patent US10676791B2, “Methods for predicting response to DNA repair pathway inhibitors in diffuse large B-cell lymphoma” (INSERM (INSTITUT NATIONAL DE LA SANTÉ ET DE LA RECHERCHE …, priority 2014, dated 2020).
# Where two headings read alike, the source gives them in different places.
# Columns and labels:
# Assay type in all cases: cell-based
# HT = assay: DLBCL cell line growth inhibition (Cell Titer Glo Luminescent Assay), HT; conditions: read-out: PJ34 IC50
# Experimental: (§1) 6 DLBCL cell lines were treated by increasing doses of PARP inhibitor (PJ34 hydrochloride). DLBCL cell lines growth was quantified with a Cell Titer Glo Luminescent Assay (Promega, Madison, Wis., USA) and the 50% inhibitory concentration (IC50) was determined using GraphPad Prism software (http://www.graphpad.com/scientific-software/prism/) (FIG. 7A).
# OCILY3 = assay: DLBCL cell line growth inhibition (Cell Titer Glo Luminescent Assay), OCILY3; conditions: read-out: PJ34 IC50
# Experimental: as §1
# OCILY1 = assay: DLBCL cell line growth inhibition (Cell Titer Glo Luminescent Assay), OCILY1; conditions: read-out: PJ34 IC50
# Experimental: as §1
# U2932 = assay: DLBCL cell line growth inhibition (Cell Titer Glo Luminescent Assay), U2932; conditions: read-out: PJ34 IC50
# Experimental: as §1
# DOHH2 = assay: DLBCL cell line growth inhibition (Cell Titer Glo Luminescent Assay), DOHH2; conditions: DOHH cell line (high HRR score)
# Experimental: as §1
# OCILY7 = assay: DLBCL cell line growth inhibition (Cell Titer Glo Luminescent Assay), OCILY7; conditions: OCILY7 cell line (high HRR score)
# Experimental: as §1
# DLBCL cell lines = DLBCL cell lines growth inhibition (Cell Titer Glo Luminescent Assay), panel of 6 cell lines
# Experimental: as §1
smiles,measurement,setting,value
"CN(C)CC(=O)Nc1ccc2[nH]c(=O)c3ccccc3c2c1.Cl [PJ34, PJ34 hydrochloride]",IC50,HT,8.08 µM
same,IC50,OCILY3,7.26 µM
same,IC50,OCILY1,7.57 µM
same,IC50,U2932,7.2 µM
same,IC50,DOHH2,15.2 µM
same,IC50,OCILY7,14 µM
same,sensitivity to PARPi,"DLBCL cell lines; DLBCL cell lines with a high BER score, excluding the cell lines with a high HRR score",sensitive
same,IC50,"DLBCL cell lines; DLBCL cell lines with a lower HRR score, read-out: median IC50",7.41 µM
same,IC50,DLBCL cell lines; median over 6 DLBCL cell lines,7.82 µM
same,fold higher resistance to PARPi,DLBCL cell lines; two DLBCL cell lines with high HRR score compared to cell lines with a lower HRR score,2 fold
